The results in this text go back to patent US10561145B2, “Fused bicyclic heterocycle derivatives as pesticides” (Bayer CropScience Aktiengesellschaft, priority 2016, dated 2020).

Like-named read-outs stand apart in the source and are kept apart here.

The test system of series [1] is Myzus persicae. In words: Myzus persicae - spray test. Type of series: in vivo. The following applies: application rate 20 g/ha, after 5 days, sprayed Chinese cabbage leaf discs, all stages of green peach aphid. As to the method:
Myzus persicae—Spray Test Solvent: 78 parts by weight of acetone • • 1.5 parts by weight of dimethylformamide Emulsifier: alkylaryl polyglycol ether To produce a suitable active compound preparation, 1 part by weight of active compound is dissolved with the specified parts by weight of solvent and made up with water containing an emulsifier concentration of 1000 ppm until the desired concentration is attained. To produce further test concentrations, the formulation is diluted with emulsifier-containing water. Discs of Chinese cabbage leaves (Brassica pekinensis) infested by all stages of the green peach aphid (Myzus persicae) are sprayed with an active compound formulation of the desired concentration. After 5 days, the efficacy in % is determined. 100% means that all the aphids have been killed; 0% means that no aphids have been killed.

The subject of series [2] is Myzus persicae. The experiment in a line: Myzus persicae - oral test. It is filed as in vivo. The note with it: application rate 4 ppm, after 5 days, green peach aphids, mixed population, oral uptake. The method, then: Myzus persicae—Oral Test Solvent: 100 parts by weight of acetone To produce a suitable preparation of active compound, 1 part by weight of active compound is dissolved using the specified parts by weight of solvent and made up with water until the desired concentration is attained. 50 μl of the active compound preparation are transferred into microtitre plates and made up to a final volume of 200 μl with 150 μl of IPL41 insect medium (33%+15% sugar). Subsequently, the plates are sealed with parafilm, which a mixed population of green peach aphids (Myzus persicae) within a second microtitre plate is able to puncture and imbibe the solution through it. After 5 days, the efficacy in % is determined. 100% means that all the aphids have been killed; 0% means that no aphids have been killed.

Series [3] in a line: log P by HPLC on a reversed-phase column (C18), EEC Directive 79/831 Annex V.A8. It is filed as physicochemical. The note with it: 55° C. The method, then:
The log P values are measured according to EEC Directive 79/831 Annex V.A8 by HPLC (high-performance liquid chromatography) on a reversed-phase column (C18). Temperature: 55° C. The LC-MS determination in the acidic range is carried out at pH 2.7 using the mobile phases 0.1% aqueous formic acid and acetonitrile (contains 0.1% formic acid); linear gradient from 10% acetonitrile to 95% acetonitrile. Called log P (HCOOH) or log P[a] in the table. The LC-MS determination in the neutral range is carried out at pH 7.8 using the mobile phases 0.001 molar aqueous ammonium bicarbonate solution and acetonitrile; linear gradient from 10% acetonitrile to 95% acetonitrile. Called log P (neutral) or log P[n] in the table. Calibration is carried out using unbranched alkan-2-ones (having 3 to 16 carbon atoms) with known log P values (log P values determined on the basis of the retention times by linear interpolation between two successive alkanones).

Series [4] relates to Phaedon cochleariae. In words: Phaedon cochleariae - spray test. It is filed as in vivo. The following applies: application rate 100 g/ha, after 7 days, sprayed Chinese cabbage leaf discs, mustard beetle larvae. The method, then: Phaedon cochleariae—Spray Test
Solvent: 78.0 parts by weight of acetone • • 1.5 parts by weight of dimethylformamide
Emulsifier: alkylaryl polyglycol ether
To produce a suitable active compound preparation, 1 part by weight of active compound is dissolved with the specified parts by weight of solvent and made up with water containing an emulsifier concentration of 1000 ppm until the desired concentration is attained. To produce further test concentrations, the formulation is diluted with emulsifier-containing water.
Discs of Chinese cabbage leaves (Brassica pekinensis) are sprayed with an active compound formulation of the desired concentration and, after drying, populated with larvae of the mustard beetle (Phaedon cochleariae).
After 7 days, the efficacy in % is determined. 100% means that all the beetle larvae have been killed; 0% means that no beetle larvae have been killed.

Where [5] appears, read: acidic range, pH 2.7, 0.1% aqueous formic acid/acetonitrile gradient, read-out: log P[a] (log P (HCOOH)).
[6] abbreviates: neutral range, pH 7.8, 0.001 molar aqueous ammonium bicarbonate/acetonitrile gradient, read-out: log P[n] (log P (neutral)).

In the case of `CCS(=O)(=O)c1c(-c2nc3cc(C(F)(F)F)ncc3n2C)ncc2sccc12` [Example I-8], the “efficacy in % (aphids killed)” value in series [1] and in series [2] was 100% each time. The values for the chromatographic logP in series [3] (setting [5]) and in series [3] (setting [6]) were 2.3 and 2.28, respectively.

`CCS(=O)(=O)c1c(-c2nc3cc(C(F)(F)F)cnc3n2C)ncc2ncsc12` [Example I-1, 7-(Ethylsulfonyl)-6-[3-methyl-6-(trifluoromethyl)-3H-imidazo[4,5-b]pyridin-2-yl][1,3]thiazolo[4,5-c]pyridine]: the “efficacy in % (aphids killed)” value in series [1] is given as 90%; in series [2], 100%. Besides, the chromatographic logP in series [3] (setting [5]) turned out to be 2.6; in series [3] (setting [6]) it was 2.53. In series [4], the “efficacy in % (beetle larvae killed)” value was found to be 83%.

Consider `CCOC(=O)c1ncc2ncsc2c1OS(=O)(=O)C(F)(F)F` [XXXIV-1, Ethyl 7-{[(trifluoromethyl)sulfonyl]oxy}[1,3]thiazolo[4,5-c]pyridine-6-carboxylate], for which the chromatographic logP was 2.58 in series [3] (setting [5]) and 2.57 in series [3] (setting [6]).

In the case of `CCS(=O)(=O)c1c(-c2nc3cc(C(F)(F)F)ncc3n2C)ncc2ccsc12` [Example I-5], in series [1], the “efficacy in % (aphids killed)” value is on record as 90%. For the same compound, the chromatographic logP was found to be 2.53 in series [3] (setting [5]) and 2.4 in series [3] (setting [6]).

As to `CCSc1c(-c2nc3cc(C(F)(F)F)ncc3n2C)ncc2ccsc12` [Example I-6], the figures for the chromatographic logP in series [3] (setting [5]) and in series [3] (setting [6]) were 2.95 and 2.85, respectively.

For the compound `CCSc1c(-c2nc3cc(C(F)(F)F)cnc3n2C)ncc2ncsc12` [Example I-3, 7-(Ethylsulfanyl)-6-[3-methyl-6-(trifluoromethyl)-3H-imidazo[4,5-b]pyridin-2-yl][1,3]thiazolo[4,5-c]pyridine], the chromatographic logP in series [3] (setting [5]) turned out to be 2.96; in series [3] (setting [6]) it was 2.94.

In the case of `CCS(=O)(=O)c1c(-c2nc3cc(C(F)(F)F)cnc3n2C)ncc2ccsc12` [Example I-4], the “efficacy in % (aphids killed)” value in series [1] is 90%; in series [2], 100%. Further, the chromatographic logP was 2.88 in series [3] (setting [5]) and 2.82 in series [3] (setting [6]). Also, in series [4], the “efficacy in % (beetle larvae killed)” value was 100%.

`CCS(=O)(=O)c1c(-c2nc3cc(C(F)(F)F)cnc3n2C)ncc2sccc12` [Example I-7]: the “efficacy in % (aphids killed)” value in series [1] and in series [2] was 100% each time. Further, the chromatographic logP is 2.56 in series [3] (setting [5]) and 2.72 in series [3] (setting [6]).

As to `CC[S+]([O-])c1c(-c2nc3cc(C(F)(F)F)cnc3n2C)ncc2ncsc12` (centres unmarked) [Example I-2, 7-(Ethylsulfinyl)-6-[3-methyl-6-(trifluoromethyl)-3H-imidazo[4,5-b]pyridin-2-yl][1,3]thiazolo[4,5-c]pyridine], the results for the chromatographic logP in series [3] (setting [5]) and in series [3] (setting [6]) were 3.09 and 2.98, respectively.

`CCOC(=O)c1ncc2ncsc2c1SCC` [XL-1, Ethyl 7-(ethylsulfanyl)[1,3]thiazolo[4,5-c]pyridine-6-carboxylate]: the chromatographic logP in series [3] (setting [5]) came to 2.23; in series [3] (setting [6]), 2.17.

Turning to `CCSc1c(C(=O)O)ncc2ncsc12` [XLI-1, 7-(Ethylsulfanyl)[1,3]thiazolo[4,5-c]pyridine-6-carboxylic acid], in series [3] (setting [5]), the chromatographic logP is 0.88.
